Laboratory results reported in patent publication US11766410B2, “Composition for preventing or treating dry eye syndrome containing α-humulene as active ingredient” (INJE UNIVERSITY INDUSTRY-ACADEMIC COOPERATION FOUNDATION, priority 2018, dated 2023).

Columns and labels:
Format in all cases: in vivo, rat
animal model of dry eye = experiment: Inhibition and treatment effect on dry corneal epithelial damage, tear amount by tear test strip; details: 10 μl of 0.5 mg/ml eye drop solution for 2 weeks, FIG. 2
Experimental: For experiments on dry corneal epithelial damage, an animal model of dry eye was prepared. It was induced by instill 1% atropine sulfate and 0.1% benzalkonium chloride twice a day for 2 weeks. After administration of the dry eye inducer, the experimental animals were applied by ocular administration according to the above-described administration method at an interval of 1 hour.
After administration of the sample for 2 weeks, the animals were anesthetized with isoflurane, and then the tear amount of each rat was measured using a Shrimer tear test strip.

MUC6 = experiment: Mucin gene expression by real-time PCR in conjunctival epithelium after eye drop administration; details: 10 μl of 0.5 mg/ml eye drops twice a day for 5 days, right eye vs saline left eye; corrected by β-actin; FIG. 1
Experimental: (§1) α-humulene was administered to the eye in the following way: 6 male rats with a body weight of about 200 g were used, and the left eye was designated as the control group and the right eye was designated as the experimental group. Samples as eye drops were administered to the eye twice a day for 5 days and 10 μl of physiological saline was administered to the left eye (control group) and 10 μl of 0.5 mg/ml α-humulene diluted in physiological saline was administered to the right eye (experimental group) as eye drops. Animals were sacrificed to extract the conjunctival epithelium containing the fornix conjunctiva from the eyes and the extracted tissue was isolated and used for molecular biological analysis.
(§2) RNA was extracted from the ocular tissues of rats according to the manufacturers instructions using RNeasy mini kit from Qiagen (USA). The cDNA was synthesized using the cDNA synthesis kit of Qiagen (USA) from the isolated RNA, and then it was used for real-time polymerase chain reaction (real-time PCR). Real-time PCR was performed according to the manufacturer's instructions using Qiagen's Rotor-Gene Q 2 plex real-time DNA amplifier and Qiagen's two-step PCR SYBR kit, and the amount of amplified DNA was quantitatively compared. Specifically, after pre-denaturation at 95° C. for 5 minutes based on the cycling protocol, each 40 cycles were repeated at 95° C. for 5 seconds and at 60° C. for 10 seconds, and it was performed in the order of the melting step rising for 3 minutes from 60° C. to 95° C. The product amplified by the real-time PCR was quantified using the Delta delta Ct method, and corrected by the expression amount of β-actin for each sample.

MUC4 = experiment: as above; details: 10 μl of 0.5 mg/ml eye drops twice a day for 5 days, right eye vs saline left eye; corrected by β-actin; FIG. 1
Experimental: as §1, §2

MUC1 = experiment: as above; details: 10 μl of 0.5 mg/ml eye drops twice a day for 5 days, right eye vs saline left eye; corrected by β-actin; FIG. 1
Experimental: as §1, §2

In the case of C/C1=C\CC/C(C)=C/CC(C)(C)/C=C/C1 [α-humulene], the amount of tears (animal model of dry eye; AS/BAC-induced dry eye, tear test strip) was “significant difference in the amount of tears”, the “therapeutic effect on dry corneal epithelial damage” value (animal model of dry eye; dry eye induced by 1% atropine sulfate/0.1% benzalkonium chloride (AS/BAC)) was “showed the therapeutic effect of the corneal epithelium” and the “expression of MUC6” value (MUC6) was “increased significantly”. The “expression of MUC4” value (MUC4) was “increased significantly” and the “expression of MUC1” value (MUC1) was “increased significantly”.
